Data set [1] has as its system spontaneously hypertensive rats (SHR). Description: Test Example 5: efficacy in spontaneously hypertensive rats. The conditions noted are these: licorice extract (Preparation Example 3) 300 mg/kg/day or enalapril maleate 20 mg/kg/day orally. Format: in vivo. As to the method:
As a positive control, enalapril maleate, an antihypertensive agent, was used.
During the period, the mice had free access to food (CRF-1, Oriental Yeast Co.) and water.
On the day immediately preceding the start of treatment and on day 7, day 14, and day 21 of treatment, the blood pressure was measured at the tail artery using a non-invasive automatic hemomanometer (BP-97A, Softron Co., Ltd.). The measurement of blood pressure was performed before each administration of the sample.

The subject of data set [2] is KK-Ay mice. Description: Test Example 7: efficacy of turmeric extract in type II diabetic model mice. It is filed as in vivo. To be noted: pioglitazone 0.04% or turmeric extract (Preparation Example 5) 0.5% in food. An excerpt: (§1) As a positive control, the antidiabetic agent pioglitazone was used. […] As pioglitazone, Actos Tab.
In data set [3] the test system is KK-Ay mice. Description: Test Example 9: efficacy of clove extract in type II diabetic model mice. Format: in vivo. The conditions noted are these: pioglitazone 0.02% or clove extract (Preparation Example 7) 0.5% in food.
Excerpt: as §1

In data set [4] the test system is KK-Ay mice. Description: Test Example 4: ameliorating effect on diabetes mellitus in type II diabetic model mice. It is filed as in vivo. To be noted: pioglitazone 0.02% or licorice extract (Preparation Example 2) 0.2% in food. An excerpt: As a positive control, the antidiabetic agent pioglitazone was used.
The mice had free access to food for 7 days. […] For the determination of blood glucose, the simple blood glucose test Glutest Ace (Sanwa Kagaku Kenkyusho Co., Ltd.) was used.

Data set [5] concerns KK-Ay mice. Description: Test Example 3: preventing effect on diabetes mellitus in type II diabetic model mice-2. Format: in vivo. The conditions noted are these: pioglitazone 0.04% or licorice extract (Preparation Example 2) 0.2% in food. An excerpt: Regarding troglitazone, Noscal Tab.
As a positive control, the antidiabetic agent pioglitazone was used. As pioglitazone, Actos Tab. […] For the determination of blood glucose, the simple blood glucose test Glutest Ace (Sanwa Kagaku Kenkyusho Co., Ltd.) was used.

Data set [6] deals with KK-Ay mice. To be noted: for Blood glucose: troglitazone 0.2% or licorice extract (Preparation Example 1) 0.15% in food. As to the method: As a positive control, the antidiabetic agent troglitazone was used.
Regarding troglitazone, Noscal Tab. 200 (200 mg of troglitazone in each tablet; Sankyo Co., Ltd.) was pulverized in an agate mortar and added to the normal food at a final concentration of 0.2%.
During the feeding period, small samples of blood were taken weekly from the mouse tail vein and the blood glucose was determined with the simple blood glucose test Novo Assist Plus (Novo Nordisk Pharma Ltd.).
At the end of the feeding period, the mice were fasted overnight and the abdomen was opened under ether anesthesia.
The blood was withdrawn from the abdominal aorta and the liver was excised and weighed. In addition, Sogo Ikagaku Kenkyusho Co., Ltd. was entrusted with analyses for serum total cholesterol (T-CHO), triglyceride (TG), free fatty acid (NEFA), GOT, GPT, LAP, cholinesterase (ChoE), total protein (TP-S), albumin (ALB-S), and A/G ratio.

Where [7] appears, read: end of 4-week feeding, overnight fast, troglitazone 0.2% or licorice extract 0.15% in food.

Here are results for three molecules from patent publication US8071141B2, “Compositions for preventing or ameliorating multiple risk factor syndromes” (priority 2000, dated 2011).

Where a name gives a salt, the structure may show the parent alone. Read-outs that look alike come from different tables or passages of the source.

Turning to `CCOC(=O)[C@H](CCc1ccccc1)N[C@@H](C)C(=O)N1CCC[C@H]1C(=O)O` [Enalapril maleate, enalapril maleate], the Blood pressure in data set [1] (Before start, tail artery) was found to be 111 ± 2.5 mmHg; in data set [1] (Day 7, tail artery), 118 ± 3.2 mmHg; in data set [1] (Day 14, tail artery), 119 ± 3.4 mmHg; in data set [1] (Day 21, tail artery), 134 ± 3.1 mmHg.

Regarding `CCc1ccc(CCOc2ccc(CC3SC(=O)NC3=O)cc2)nc1` (stereo not shown) [Pioglitazone, pioglitazone], the Blood glucose with KK-Ay mice [2] (1 week) was determined as 163 ± 23 mg/dL; with KK-Ay mice [2] (2 week), 182 ± 9 mg/dL; with KK-Ay mice [2] (3 week), 166 ± 18 mg/dL; in the data set with KK-Ay mice [2] (4 week) it was 153 ± 21 mg/dL; with KK-Ay mice [2] (Start), 151 ± 9 mg/dL; with KK-Ay mice [3] (1 week), 208 ± 21 mg/dL. Besides, the Blood glucose in the data set with KK-Ay mice [3] (2 week) worked out at 192 ± 17 mg/dL; in the data set on KK-Ay mice [3] (3 week) it was 164 ± 16 mg/dL; with KK-Ay mice [3] (Start), 156 ± 16 mg/dL; with KK-Ay mice [4] (Day 4), 168 ± 49 mg/dL; in the data set with KK-Ay mice [4] (Day 7), 143 ± 16 mg/dL; in the data set on KK-Ay mice [4] (Start, hyperglycemic 15-week-old mice) it was 378 ± 36 mg/dL. In addition, the Blood glucose turned out to be 163 ± 23 mg/dL in the data set on KK-Ay mice [5] (1 week); 182 ± 9 mg/dL in the data set on KK-Ay mice [5] (2 week); 167 ± 18 mg/dL in the data set on KK-Ay mice [5] (3 week); 153 ± 21 mg/dL in the data set on KK-Ay mice [5] (4 week); 151 ± 9 mg/dL in the data set on KK-Ay mice [5] (Start).

As to `Cc1c(C)c2c(c(C)c1O)CCC(C)(COc1ccc(CC3SC(=O)NC3=O)cc1)O2` (stereo not shown) [Troglitazone, troglitazone], the Blood glucose in the data set on KK-Ay mice [6] (1 week) is 217 ± 74 mg/dL. The Blood glucose in the data set with KK-Ay mice [6] (2 week) stood at 173 ± 40 mg/dL. This molecule came in with a Blood glucose with KK-Ay mice [6] (3 week) of 304 ± 77 mg/dL. Further, the Blood glucose with KK-Ay mice [6] (4 week) worked out at 246 ± 51 mg/dL. This molecule also had a Blood glucose in the data set with KK-Ay mice [6] (Start) of 145 ± 11 mg/dL. Further, in the data set with KK-Ay mice [6] (setting [7]), the “NEFA (serum free fatty acid)” value was determined as 1750 ± 302 μEq/L, the “T-CHO (serum total cholesterol)” value worked out at 163 ± 7 mg/dL and the “TG (serum triglyceride)” value was 39 ± 14 mg/dL. In addition, in the data set with KK-Ay mice [6] (mouse, in vivo), the A/G ratio amounted to 0.98 ± 0.05, the “ALB-S (albumin)” value was determined as 2.50 ± 0.12 g/dL, the GOT came out at 121 ± 26 IU/L and the GPT is given as 70.5 ± 26.2 IU/L. Besides, in the data set on KK-Ay mice [6] (mouse, in vivo), the LAP is recorded as 60.8 ± 6.1 IU/L, the “TP-S (total protein)” value is 5.13 ± 0.17 g/dL and the “elevation in GOT compared with the non-treatment group” value is reported as 13%. The “ChoE (cholinesterase)” value in the data set with KK-Ay mice [6] (serum, end of 4-week feeding, troglitazone 0.2% or licorice extract 0.15% in food) was found to be 153 ± 9 IU/L.
